Laboratory results taken from patent US20210379184A1, “Deep Eutectic Solvent Platform for Oral Pharmaceutical Formulations” (SeraNovo B.V., priority 2018, published 2021).
Values after ≈ are worked out from the molar mass of the structure shown.

Experiment: physchem
Excerpt: The DES systems contained propylene glycol, a specific polymer solubilizer, and one or more (NA)DES constituents.

SMILES	solubility (20 °C, pH 7, water) [µg/mL]	Concentration solubilized API (mg/mL)	factor by which the concentration solubilized in DES exceeds the solubility of the drug in water	solubility (organic solvent or mixture, solubility of itraconazole) [µg/mL]	solubility (organic solvent or mixture, Concentration solubilized API (mg/mL)) [µg/mL]
CCC(C)n1ncn(-c2ccc(N3CCN(c4ccc(OCC5COC(Cn6cncn6)(c6ccc(Cl)cc6Cl)O5)cc4)CC3)cc2)c1=O (centres unmarked) [Itraconazole]	0.004 (≈ 0.00567 µM)	up to 200 mg/mL	≤ 10.000.000	< 25000	
COc1ccccc1OCCNCC(O)COc1cccc2[nH]c3ccccc3c12 (centres unmarked) [Carvedilol]	0.6 (≈ 1.48 µM)				
NC(=O)N1c2ccccc2C=Cc2ccccc21 [Carbamazepine]	17 (≈ 72 µM)				> 100000

Further lines, results first:

solubility (20 °C, pH 7, water) [µg/mL]	Concentration solubilized API (mg/mL)	factor by which the concentration solubilized in DES exceeds the solubility of the drug in water	solubility (organic solvent or mixture, solubility of itraconazole) [µg/mL]	solubility (organic solvent or mixture, Concentration solubilized API (mg/mL)) [µg/mL]	SMILES
9.1 (≈ 32.4 µM)					O=C(O)c1ccccc1Nc1cccc(C(F)(F)F)c1 [Flufenamic Acid]
21 (≈ 102 µM)		at least 100			CC(C)Cc1ccc(C(C)C(=O)O)cc1 (centres unmarked) [Ibuprofen]
0.09 (≈ 0.169 µM)					CC(=O)N1CCN(c2ccc(OCC3COC(Cn4ccnc4)(c4ccc(Cl)cc4Cl)O3)cc2)CC1 (centres unmarked) [Ketoconazole]
